Source: patent US20230085307A1, “PYRIDAZINONE COMPOUND AND HERBICIDE” (NISSAN CHEMICAL CORPORATION, priority 2019, published 2023)

What was measured:
late watergrass = assay: Test Example 1: herbicidal activity, application before weed generation under submerged conditions (Table 16, symbol A); assay type: in vivo, late watergrass (Echinochloa oryzicola); conditions: 320 g/ha applied herbicide
From the text: (§1) [Test Example 1] Herbicidal Activity Test by Application before Weed Generation under Submerged Conditions After alluvial soil was placed into 1/10000 are of Wagner pot, water was poured and mixed to form a submerged condition having a water depth of 4 cm. Seeds of late watergrass, Japanese bulrush, and oval-leafed pondweed were sowed in a mixed manner in the aforementioned pot, and then 2.5 leaf stage rice plant seedlings were transplanted thereto. On the day of sowing seeds, the emulsion agent of the compound of the present invention prepared according to Formulation Example 2 was diluted with water so as to achieve a predetermined herbicide amount, and the diluted emulsion agent was applied to the surface of the water. The pot was placed in a greenhouse at 25° C. to 30° C. for growth of the plants. Three weeks after the herbicide application, the effect of the herbicide on each plant was evaluated according to the following criteria. Evaluation Criteria 5: Herbicidal rate of 90% or more (almost completely withered) 4: Herbicidal rate of 70% or more and less than 90% 3: Herbicidal rate of 40% or more and less than 70% 2: Herbicidal rate of 20% or more and less than 40% 1: Herbicidal rate of 5% or more and less than 20% 0: Herbicidal rate of 5% or less (almost no effect)

Japanese bulrush = assay: Test Example 1: herbicidal activity, application before weed generation under submerged conditions (Table 16, symbol B); assay type: in vivo, Japanese bulrush (Schoenoplectus juncoides); conditions: 320 g/ha applied herbicide
From the text: as §1

oval-leafed pondweed = assay: Test Example 1: herbicidal activity, application before weed generation under submerged conditions (Table 16, symbol C); assay type: in vivo, oval-leafed pondweed (Monochoria vaginalis); conditions: 320 g/ha applied herbicide
From the text: as §1

barnyard grass = assay: Test Example 3: herbicidal effect by foliage application, Wagner pot (Table 18, symbol H); assay type: in vivo, barnyard grass (Echinochloa crus-galli); conditions: amount of applied herbicide 320 g/ha
Outline: (§2)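 Plants were sown in alluvial soil held under 0.1–0.5 cm standing water and grown 14 days in a greenhouse at 25–30 °C. An emulsifiable formulation, water-diluted to the set dose, was then sprayed onto the foliage, and effects were scored three weeks later using previously defined criteria.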

Chinese sprangletop = assay: Test Example 3: herbicidal effect by foliage application, Wagner pot (Table 18, symbol D); assay type: in vivo, chinese sprangletop (Leptochloa chinensis); conditions: amount of applied herbicide 320 g/ha
Outline: as §2

rice flat sedge = assay: Test Example 3: herbicidal effect by foliage application, Wagner pot (Table 18, symbol E); assay type: in vivo, rice flat sedge (Cyperus iria); conditions: amount of applied herbicide 320 g/ha
Outline: as §2

| Compound | Herbicidal effect on A: late watergrass (grade 0-5) (late watergrass) | Herbicidal effect on B: Japanese bulrush (grade 0-5) (Japanese bulrush) | Herbicidal effect on C: oval-leafed pondweed (grade 0-5) (oval-leafed pondweed) | herbicidal effect on H: barnyard grass (barnyard grass) | herbicidal effect on D: Chinese sprangletop (Chinese sprangletop) | herbicidal effect on E: rice flat sedge (rice flat sedge) |
| --- | --- | --- | --- | --- | --- | --- |
| CC[S+]([O-])Cc1ccc(-c2sc3ccc(F)cc3c2-c2c(O)c(C)nn(C)c2=O)cc1 (stereo not drawn) [2-333] | 2 (Herbicidal rate of 20% or more and less than 40%) | 0 (Herbicidal rate of 5% or less (almost no effect)) | 0 (Herbicidal rate of 5% or less (almost no effect)) | 5 (Herbicidal rate of 90% or more (almost completely withered)) | 2 (Herbicidal rate of 20% or more and less than 40%) | 5 (Herbicidal rate of 90% or more (almost completely withered)) |
| CCS(=O)(=O)Cc1ccc(-c2sc3ccc(F)cc3c2-c2c(O)c(C)nn(C)c2=O)cc1 [2-335] | 3 (Herbicidal rate of 40% or more and less than 70%) | 0 (Herbicidal rate of 5% or less (almost no effect)) | 0 (Herbicidal rate of 5% or less (almost no effect)) | 5 (Herbicidal rate of 90% or more (almost completely withered)) | 3 (Herbicidal rate of 40% or more and less than 70%) | 5 (Herbicidal rate of 90% or more (almost completely withered)) |
